Source: ChEMBL document CHEMBL3856262, “A diastereoselective synthesis of tetrahydro- and dihydro-pyrido[2,3-c]coumarin derivatives via a one-pot three-component Povarov reaction catalyzed by bismuth(III) chloride” (2016)
≈ marks a conversion by molar mass, not a printed value.

Assays:
Assay type in all cases: functional
Candida albicans = assay: Antimicrobial activity against Candida albicans MTCC 3017 incubated for 24 hrs by well diffusion assay; settings: MTCC 3017, 24 h
Staphylococcus aureus [1] = assay: Antimicrobial activity against Staphylococcus aureus MTCC 96 incubated for 24 hrs by well diffusion assay; settings: MTCC 96, 24 h
Escherichia coli = assay: Antimicrobial activity against Escherichia coli MTCC 739 incubated for 24 hrs by well diffusion assay; settings: MTCC 739, 24 h
Raoultella planticola = assay: Antimicrobial activity against Klebsiella planticola MTCC 530 incubated for 24 hrs by well diffusion assay; settings: MTCC 530, 24 h
Bacillus subtilis = assay: Antimicrobial activity against Bacillus subtilis MTCC 121 incubated for 24 hrs by well diffusion assay; settings: MTCC 121, 24 h
Micrococcus luteus = assay: Antimicrobial activity against Micrococcus luteus MTCC 2470 incubated for 24 hrs by well diffusion assay; settings: MTCC 2470, 24 h
Staphylococcus aureus [2] = assay: Antimicrobial activity against Staphylococcus aureus MLS-16 […] incubated for 24 hrs by well diffusion assay
Pseudomonas aeruginosa = assay: Antimicrobial activity against Pseudomonas aeruginosa MTCC 2453 incubated for 24 hrs by well diffusion assay; settings: MTCC 2453, 24 h
[3] = Antioxidant activity assessed as DPPH radical scavenging activity at 0.5 mM incubated for 40 mins in dark condition
[4] = Antioxidant activity assessed as DPPH radical scavenging activity at 1 mM incubated for 40 mins in dark condition
[5] = Antioxidant activity assessed as DPPH radical scavenging activity at 2 mM incubated for 40 mins in dark condition

SMILES	MIC (Candida albicans) [µg/mL]	MIC (Staphylococcus aureus [1]) [µg/mL]	MIC (Escherichia coli) [µg/mL]	MIC (Bacillus subtilis) [µg/mL]	MIC (Micrococcus luteus) [µg/mL]	MIC (Staphylococcus aureus [2]) [µg/mL]	MIC (Pseudomonas aeruginosa) [µg/mL]	MIC (Raoultella planticola) [µg/mL]	Activity [3] [%]	Activity [4] [%]	Activity [5] [%]
O=c1oc2ccccc2c2c1N[C@H](c1ccc(Cl)cc1)C[C@H]2c1ccc2ccccc2c1	> 100	> 100	> 100	> 100	> 100	> 100	> 100	> 100	–	–	–
Cc1cc(C(C)(C)C)c(O)c(C(C)(C)C)c1	–	–	–	–	–	–	–	–	39.8	68.5	78.5
O=C(O)c1cn(C2CC2)c2cc(N3CCNCC3)c(F)cc2c1=O [CIPROFLOXACIN]	–	0.58 (≈ 1.75 µM)	0.58 (≈ 1.75 µM)	0.58 (≈ 1.75 µM)	0.58 (≈ 1.75 µM)	0.58 (≈ 1.75 µM)	0.58 (≈ 1.75 µM)	0.58 (≈ 1.75 µM)	–	–	–
Nc1cc2ccccc2oc1=O	> 100	> 100	> 100	> 100	> 100	> 100	> 100	> 100	–	2.77	6.08
Cc1c(C)c2c(c(C)c1O)CC[C@@](C)(CCC[C@H](C)CCC[C@H](C)CCCC(C)C)O2	–	–	–	–	–	–	–	–	47.7	81.7	86.4
O=c1oc2ccccc2c2c1N[C@H](c1ccccc1)[C@H]1CCCO[C@@H]21	> 100	> 100	> 100	> 100	> 100	> 100	> 100	> 100	–	–	–
O=c1oc2ccccc2c2c1N[C@H](c1ccc(Cl)cc1)[C@H]1CCCO[C@@H]21	> 100	> 100	> 100	> 100	> 100	> 100	> 100	> 100	–	–	–
CCOC(=O)C1=C(C(=O)OCC)[C@@H](c2cc(OC)ccc2O)Nc2c1c1ccccc1oc2=O	> 100	> 100	> 100	> 100	> 100	> 100	> 100	> 100	9.58	20.1	32.1
Clc1ccc(COC(Cn2ccnc2)c2ccc(Cl)cc2Cl)c(Cl)c1 (stereo not given) [MICONAZOLE]	9.37 (≈ 22.5 µM)	–	–	–	–	–	–	–	–	–	–
COc1cc(OC)cc([C@@H]2C[C@@H](c3ccc4ccccc4c3)c3c(c(=O)oc4ccccc34)N2)c1	> 100	> 100	> 100	> 100	> 100	> 100	> 100	> 100	–	–	–
O=c1oc2ccccc2c2c1N[C@H](c1ccc(F)cc1)[C@H]1CCCO[C@@H]21	> 100	> 100	> 100	> 100	> 100	> 100	> 100	> 100	–	–	–
CCOC(=O)C1=C(C(=O)OCC)[C@@H](c2cc(O)ccc2O)Nc2c1c1ccccc1oc2=O	> 100	> 100	> 100	> 100	> 100	> 100	> 100	> 100	2.43	3.88	7.42

Now from value to molecule, other results behind:

MIC (Candida albicans) [µg/mL]	MIC (Staphylococcus aureus [1]) [µg/mL]	MIC (Escherichia coli) [µg/mL]	MIC (Bacillus subtilis) [µg/mL]	MIC (Micrococcus luteus) [µg/mL]	MIC (Staphylococcus aureus [2]) [µg/mL]	MIC (Pseudomonas aeruginosa) [µg/mL]	SMILES	MIC (Raoultella planticola) [µg/mL]	Activity [3] [%]	Activity [4] [%]	Activity [5] [%]
> 100	> 100	> 100	> 100	> 100	> 100	> 100	CCOc1ccc([C@H]2Nc3c(c4ccccc4oc3=O)[C@@H]3OCCC[C@H]23)cc1	> 100	–	–	–
> 100	> 100	> 100	> 100	> 100	> 100	> 100	CC(C)OC(=O)N1c2c(c(=O)oc3ccccc23)N[C@H](c2ccc([N+](=O)[O-])cc2)N1C(=O)OC(C)C	> 100	3.27	7.06	14.6
> 100	> 100	> 100	> 100	> 100	> 100	> 100	CC(C)OC(=O)N1c2c(c(=O)oc3ccccc23)N[C@H](c2ccc(O)c(Cl)c2)N1C(=O)OC(C)C	> 100	10.8	21	31.1
> 100	> 100	> 100	> 100	> 100	> 100	> 100	CC(C)OC(=O)N1c2c(c(=O)oc3ccccc23)N[C@H](c2ccc(C#N)cc2)N1C(=O)OC(C)C	> 100	–	0.88	3.14
> 100	> 100	> 100	> 100	> 100	> 100	> 100	O=c1oc2ccccc2c2c1N[C@H](c1ccc([N+](=O)[O-])cc1)[C@H]1CCCO[C@@H]21	> 100	–	–	–
> 100	> 100	> 100	> 100	> 100	> 100	> 100	CC(C)OC(=O)N1c2c(c(=O)oc3ccccc23)N[C@H](c2ccc(C(F)(F)F)cc2)N1C(=O)OC(C)C	> 100	–	1.06	6.8
> 100	> 100	> 100	> 100	> 100	> 100	> 100	CCOC(=O)C1=C(C(=O)OCC)[C@@H](c2ccc(O)c(Cl)c2)Nc2c1c1ccccc1oc2=O	> 100	4.84	5.79	11
